Like-named read-outs stand apart in the source and are kept apart here.
Legend:
[1] = tested on: avian influenza virus KBNP-0028 (KCTC 10866BP); type: cell-based, A/chicken/Korea/SNU0028/2000(H9N2)
[2] = tested on: CEF (chicken embryo fibroblasts)

In the case of `O=C(CCc1ccc(O)c(O)c1)C[C@H](CCc1ccc(O)c(O)c1)OC1OCC(O)C(O)C1OC(=O)/C=C/c1ccc(O)cc1` (stereo partly drawn) [12B-AJ-17A-1, (5S)-1,7-bis(3,4-dihydroxyphenyl)-3-heptanone-5-O-(2-coumaroyl)-β-D-xylopyranoside], the “antiviral activity (in words)” value [1] is reported as “had antiviral activity”, the “Number of wells wherein hemagglutination occurs (among 6 wells)” value (shortened to “Number”) ([1]; 12.5 μg/mL) is reported as 3 and the “Number” value ([1]; 25 μg/mL) is reported as 3. For the same molecule, the “Number” value ([1]; 50 μg/mL) was 3, the “Number” value ([1]; 100 μg/mL) was 3 and the “cytotoxicity (in words)” value [2] was “no cytotoxicity”.
